Laboratory results: patent US20150157651A1, “TRI-SUBSTITUTED GLYCEROL COMPOUNDS FOR USE IN THE TREATMENT OF CLINICALLY ISOLATED SYNDROME AND/OR MULTIPLE SCLEROSIS” (ALPHAPTOSE GMBH, priority 2012, published 2015)
In brackets after ≈: the same amount, converted by molar mass. Entries after “also recorded” stand apart in the source; their conditions may differ.

How the values were obtained:
[1] = test system: human peripheral blood mononuclear cells (PBMCs); assay: PBMC proliferation, edelfosine added on cell seeding, with or without PHA; assay type: cell-based
Description: (§1) FIG. 1: Human T-cell proliferation was affected by edelfosine. […] (B) The inhibitory effect of edelfosine was also observed if the drug was added to already activated, proliferating T cells. […] (C) Preincubation of PBMCs with at least 3.3 μg/ml edelfosine interfered with the cells' capacity to proliferate upon PHA stimulation. No effect was detected in preconditioned, but unstimulated cells (experiments A-C: sample size n=3 donors, each approach was seeded in triplicates). (D) 1 μg/ml edelfosine or higher concentrations profoundly diminished proliferation in MBP(83-99)-specific TCLs (T-cell line). One representative TCL of two is shown. Cells were incubated in quadruplicates. (E) PBMCs were cultured without addition of stimulus. Proliferation was detectable after seven days. […] Bars represent mean values±SEM, *P<0.05, **P<0.01 and ***P<0.001 after post-hoc analysis.
FIG. 9 describes the influence of edelfosine on human T cell proliferation. […] PBMCs were used for the examination of concentration-dependent edelfosine impact on human T cell activation and proliferation (b, 72 h of co-culture). A reduction in proliferation was already detectable upon addition of 1.0 μg/ml edelfosine (**P<0.01, n=3). Enriched CD4+ T cells from PBMCs of both two age-matched female and male donors were incubated for 30 h in presence of 3.3 μg/ml edelfosine. Cells were stimulated with beads coated with antibodies against CD2, CD3 and CD28.
In order to characterize the influence of edelfosine on the proliferation of human T cells, peripheral blood mononuclear cells (PBMCs) were first stimulated with a mitogenic stimulus, PHA (phytohemagglutinin) Proliferation was analyzed after three days of culture. First, the impact of edelfosine on T-cell activation and proliferation was investigated by adding edelfosine immediately as the cells were seeded. Cells were incubated without or in the presence of PHA. […] Here, the half maximal inhibitory concentration (IC50) was determined by nonlinear regression.

human PBMCs [2] = assay: Proliferation of already PHA-activated, proliferating PBMCs, edelfosine added two days later; assay type: cell-based
Description: as §1
The second approach aimed at characterizing the edelfosine influence on already proliferating cells. For that reason cells were activated with PHA, and edelfosine was added two days later.

human PBMCs [3] = assay: PBMC proliferation after 24 h preincubation with edelfosine, washing, then PHA stimulation; assay type: cell-based
Description: as §1
Cells were washed extensively to remove edelfosine followed by further culturing for three days. In control approaches cells were incubated without PHA. […] 3.3 μg/ml edelfosine or higher interfered with the cellular capacity to proliferate upon stimulation with PHA.

human PBMCs [4] = assay: PBMC proliferation over seven days without addition of stimulus; assay type: cell-based; details: 3.3 μg/ml edelfosine, up to seven days
Description: as §1
In an additional approach PBMCs were incubated for up to seven days without the addition of a stimulus. Cells were cultured in medium alone, in presence of anti-HLA-DR- and anti-MHC class I-blocking antibody or with 3.3 μg/ml edelfosine.

human CD4+ T cells [5] = assay: Whole genome expression (microarray) analysis of CD4+ T cells; assay type: cell-based
Description: FIG. 2: Modulated gene expression in CD4+ T cells upon culture with edelfosine.
Enriched CD4+ T cells from PBMCs of two age-matched female as well as two age-matched male donors were incubated for 30 h without edelfosine, in presence of 3.3 μg/ml edelfosine and 10 μg/ml edelfosine, respectively. In parallel approaches, cells were incubated with beads coated with antibodies against CD2, CD3 and CD28 or with coated beads and 3.3 μg/ml edelfosine. Cell-culture supernatant was saved and cells were subjected to RNA isolation, cDNA synthesis and microarray analysis for gene expression. Comparative gene-expression analysis was performed according to FIG. 2.
In general, edelfosine modulated the gene expression of human CD4+ T cells in the case of stimulation but also if no exogenous stimulus was added, although to a limited extent. […] Therefore, further analysis of the unstimulated cells focused on the 10 μg/ml edelfosine approach. Next, the database for annotation, visualization and integrated discovery (DAVID)-bioinformatics database was used to annotate the differentially expressed genes to functional themes/groups and assign to them so-called gene-ontology (GO) terms for specific pathways of cellular function (314). The GO project is an effort to consistently describe gene products in databases. DAVID, as a tool, is designed to allow systematical mapping of large numbers of genes in lists associated with biological annotations (e.g. GO terms). Three structured controlled vocabularies (ontologies) have been developed to describe gene products in a species-independent manner: the associated biological process (BP), cellular components and molecular functions. The GOTERM_BP_FAT set which has been specifically designed by the DAVID consortium was selected to filter the broadest terms in order to prevent overshadowing of more specific terms. FIG. 3 summarizes the top-3 GO-terms which were selected due to their highest GO P-values. As shown therein, the addition of […] edelfosine was leading to an upregulation of genes associated with apoptosis and cell death in the unstimulated setting, a finding that was in accordance with the previously described analysis for annexin V and PI after edelfosine incubation.

[6] = test system: relapsing-remitting EAE (RR-EAE) model in SJL mice; assay: Relapsing-remitting EAE disease course, clinical scoring; assay type: in vivo
Text: FIG. 6 describes the influence of edelfosine on EAE disease course. Our aim was to study the effect of edelfosine on the immune system in the context of experimental autoimmune encephalomyelitis (EAE), an animal model of multiple sclerosis. In the course of EAE CD4+ T cell and mononuclear cell inflammation is followed by axonal damage and demyelination in the central nervous system (CNS) which results in progressive hind-limb paralysis. In order to analyze the anti-inflammatory properties of edelfosine we have used the relapsing-remitting EAE (RR-EAE) model in SJL mice. We also examined the edelfosine impact on human T-cell proliferation. For EAE induction SJL mice were immunized with the proteolipid PLP(139-151). Edelfosine was adminstered by intraperitoneal injection from day 0 at a daily basis. EAE disease course was assessed by clinical scoring in a 0-5 scale until day 40 (*P<0.05, 2-way ANOVA, n=7). To investigate the therapeutic effect of edelfosine on RR-EAE disease course, SJL mice were immunized and treatment of the mice was started at disease onset by intraperitoneal injection from day 11 at a daily basis until day 45.

[7] = test system: lymph node cells of SJL mice; assay: Ex vivo thymidine proliferation of lymph node cells from treated immunized mice; assay type: in vivo
Description: FIG. 7 describes the impact of edelfosine on proliferation of antigen-specific cells. To examine the influence of edelfosine on antigen-specific cells in the periphery lymph nodes from SJL mice were prepared for thymidine proliferation assays 9 days after immunization. Cells were restimulated ex vivo by addition of mitogenic- (a), polyclonal or disease-relevant (PLP(139-151); b) antigen.

[8] = test system: CNS-infiltrating cells of EAE SJL mice; assay: CNS cellular infiltration in EAE acute phase, flow cytometry; assay type: in vivo; details: 15 days after EAE induction
Description: FIG. 8 describes the effect of edelfosine on CNS cellular infiltration in EAE acute phase. SJL mice were immunized with […]. 15 days after EAE induction CNS cells were analyzed by flow cytometry. The administration of 10 mg/kg edelfosine reduced the absolute number of CNS-infiltrating CD45+ leukocytes (a). […] We found a significant treatment effect with a significant difference between 10 mg/kg edelfosine and PBS treatment in CD4+ cells (*P<0.05 compared to PBS control group, post-hoc comparison after 1-way ANOVA, n=4). Similar differences were found for T cells in spleens at day 9 after immunization.

non-stimulated PBMCs = assay: Flow cytometry of non-stimulated PBMCs for cell death; assay type: cell-based, human; details: 10 μg/ml or 33.3 μg/ml, 24 h
human CD4+ T cells [9] = assay: Whole genome expression (microarray) analysis of CD4+ T cells; assay type: cell-based; details: unstimulated cells, 10 μg/ml, 30 h
[10] = cells stimulated with anti-CD2/CD3/CD28 beads, 3.3 μg/ml, 30 h
[11] = unstimulated cells, 10 μg/ml, 30 h

Q: What does the source list for `CCCCCCCCCCCCCCCCCCOC[C@H](COP(=O)([O-])OCC[N+](C)(C)C)OC` (racemic) [edelfosine, 1-O-octadecyl-2-O-methyl-sn-glycero-3-phosphocholine]?
A: IC50 ([1]; Homo sapiens, PBMC, 72 h, read-out: half maximal inhibitory concentration (IC50) of proliferation, PHA-stimulated cells, edelfosine added at seeding, three days of culture): 0.64 ± 0.1 µg/mL (≈ 1.22 µM); fold lower concentration at which PHA-activated cells are susceptible compared to cells without PHA ([1]; PHA-activated versus unstimulated PBMCs): 10 fold; edelfosine concentration at which a reduction in proliferation was detectable ([1]; unstimulated controls, added at seeding, three days): ≥ 10 µg/mL; edelfosine concentration giving efficient reduction of proliferation (human PBMCs [2]; PHA-activated cells, edelfosine added two days later): ≥ 3.3 µg/mL; edelfosine concentration giving significant reduction of proliferation (human PBMCs [2]; unstimulated controls): 33.3 µg/mL; edelfosine concentration up to which cells retain proliferative function (human PBMCs [3]; 24 h preincubation, washed, PHA stimulation, three days): up to 1 μg/ml; effect on proliferation (human PBMCs [3]; preconditioned but unstimulated cells): no significant reductions of proliferation; also recorded: No effect; effect on proliferation without stimulus (human PBMCs [4]): reduced to non-detectable levels; also recorded: inhibited cellular proliferation; expression of cell cycle-associated genes (human CD4+ T cells [5]; [10]): downmodulation; also recorded: down-regulated; expression of genes associated with apoptosis and cell death (human CD4+ T cells [5]; [10]): upregulation; expression of immune and virus response-associated, type I interferon-related genes (human CD4+ T cells [5]; [10]): consistent and profound upregulation; also recorded: upregulated; number of downregulated genes assigned to antigen processing and presentation (SLR≦−0.8) (human CD4+ T cells [5]; unstimulated cells, 10 μg/ml): 25; expression of immune response and antigen processing and presentation (MHC class II) genes (human CD4+ T cells [5]; [11]): downmodulation; also recorded: downregulated; number of upregulated genes (SLR≧0.8) (human CD4+ T cells [5]; [11]): 11; EAE disease course ([6]; prophylactic, 10 mg/kg daily intraperitoneal from day 0): EAE amelioration; EAE disease course ([6]; therapeutic, 10 mg/kg daily intraperitoneal from disease onset (day 11)): EAE amelioration; proliferative function of lymph node cells on ex vivo restimulation ([7]; 9 days after immunization, edelfosine-treated mice): retained their proliferative function; proliferation on re-activation with PLP peptide ([7]; 9 days after immunization, ex vivo PLP restimulation): edelfosine dose-dependent proliferation; SI compared to PBS treatment of mice ([7]; antigen-induced proliferation, edelfosine-treated mice): increased SI; absolute number of CNS-infiltrating CD45+ leukocytes ([8]; 10 mg/kg): reduced; frequencies of CD8+ T cells ([8]; 10 mg/kg): not affected; infiltrating CD4+ T cells ([8]; 10 mg/kg): relative decrease; activation of caspase 3 in CNS CD4+ T cells ([8]; significant for 10 mg/kg versus PBS): dose-dependent activation; also recorded: increased; cell death in non-stimulated PBMCs (non-stimulated PBMCs): induction of non-apoptotic cell death; expression of apoptosis- and cell death-associated genes (human CD4+ T cells [9]): upregulation
